Converted amounts (≈) assume the structure as drawn. “And” between values parts separate entries of the source, which are not always exact repeats. Identical values can stand only once. Like-named read-outs stand apart in the source and are kept apart here.
Assays:
[1] = cited from earlier work
[2] = Plasma pharmacokinetics by LC-MS/MS in OVCAR3 xenograft tumor-bearing nude mice; format: in vivo, BALB/c nude mice; conditions: n = 3
Procedure: (§1) This study, approved by Fudan University Ethics Committee (protocol code: 201904008Z) on 26 April 2019, was conducted in compliance with AAALAC’s International Commission guidelines for laboratory animal evaluation and accreditation. A total of 36 female BALB/c nude mice (6–8 weeks old, weighing 18–20 g) were purchased from Charles River Laboratories (Pinghu, China). The OVCAR3 ovarian cancer cell line (ATCC® HTB-161™) was used to establish human xenografts. OVCAR3 cells (10 × 10^6) suspended in 0.2 mL of Matrigel were subcutaneously inoculated into the dorsal region of each mouse. Tumors were allowed to grow until reaching a volume of ~160 mm^3, typically around 30 days post-inoculation.
(§2) WX390 was prepared in Solvent-1, comprising dimethyl sulfoxide (DMSO): methylcellulose: water at a ratio of 1:1:98 (v/v/v). BYL719 and dorzagliatin were formulated in Solvent-2, consisting of Tween 80: water with 0.5% methylcellulose (MC) solution at a ratio of 0.2:99.8 (v/v). The treatment control was a combination of Solvent-1 and Solvent-2. The test compounds were administered orally as follows: WX390 at 0.2 mg/kg, BYL719 at 25 mg/kg, and dorzagliatin at 10 mg/kg, dissolved in their respective formulations. Due to ethical considerations regarding gavage volume the administration volume across all groups was standardized to 10 μL/g of body weight.
(§3) The experiment involved six treatment groups, each comprising six mice. The groups included: (i) vehicle control, (ii) WX390 (0.2 mg/kg), (iii) BYL719 (25 mg/kg), (iv) dorzagliatin (10 mg/kg), (v) WX390 (0.2 mg/kg) + dorzagliatin (10 mg/kg), and (vi) BYL719 (25 mg/kg) + dorzagliatin (10 mg/kg). All treatments were administered via oral gavage once daily for four weeks. In the combination group of PI3Ki and dorzagliatin, dorzagliatin was administered 30 min prior to PI3Ki.
Following the 4-week treatment period, all experimental groups were fasted 6 h before the last administration until the end of the experiment. Water was not restricted during the fasting period. Blood samples were collected at 0, 0.5, 1, 2, 4, and 8 h after administration. Each mouse had 3 blood collection points, with 50 μL of plasma collected at each point. Mice in each group were allocated to two cohorts: The first cohort underwent blood collection at 0, 1, and 2 h post-administration, while the second cohort was sampled at 0.5, 4, and 8 h post-administration. Terminal blood collection at the 2-h time point for the first cohort was performed via cardiac puncture following euthanasia, during which tumor tissues were concurrently harvested from this cohort. Blood samples were processed through centrifugation (4 °C, 1500× g for 10 min) for plasma separation. All plasma and tumor samples were immediately snap-frozen in liquid nitrogen and stored at −80 °C for subsequent analysis.
The extraction of WX390, BYL719, and dorzagliatin from plasma samples was performed using protein precipitation. Internal standards (IS) included SBL-D3, BNSL-D5, and PLPL-D8 for WX390, BYL719, and dorzagliatin, respectively. Plasma samples (20 μL) were mixed with 20 μL of zinc sulfate aqueous solution (0.1 mol/L) and 200 µL of a 50% methanol solution containing three internal standards followed by vortexing for 10 min. The samples were centrifuged at 4 °C (15,000× g for 5 min). The supernatant (180 μL) was transferred to a clean Eppendorf tube, and a 10 μL aliquot was injected into the LC-MS/MS system.
Chromatographic separations were performed using an AB SCIEX Jasper HPLC system coupled with an AB SCIEX Triple Quad 4500MD mass spectrometer (AB SCIEX, USA). A Phenomenex Kinetex C18 column (100 × 3 mm, 2.6 μm) was used at 40 °C. The flow rate was maintained at 0.4 mL/min with a total run time of 4 min. […]

CYP3A4 = test system: CYP3A4; set-up: method as in ref 31 = [31]; 31. FDA Label of PIQRAY® (Alpelisib) FDA Silver Spring, MD, USA 2019; conditions: repeated doses of 300 mg BYL719 with midazolam and other substrates, everolimus; cited from earlier work
P-gp = conditions: cited from earlier work
[3] = major metabolite BZG791; CYP3A4 to a lesser extent; no reference given; cited from earlier work
[4] = human, in vivo; cited from earlier work
OVCAR3 xenograft tumor = test: In vivo tumor growth, OVCAR3 subcutaneous xenograft tumor model; set-up: species or system BALB/c nude mice; conditions: n = 6; for T/C (Relative Tumor Growth Rate) / TGI (Tumor Growth Inhibition): based on tumor volume on day 28, vs vehicle; for Tumor Volume (Day 28): day 28 after administration, oral once daily, Dorz 10 mg/kg, WX390 0.2 mg/kg, BYL719 25 mg/kg, vehicle 1582 mm^3
Procedure: as §1, §2, §3
Tumor dimensions were measured biweekly using a vernier caliper. Tumor volume was calculated using the formula:(1) V=0.5a×b^2 where: • a represents the longest tumor diameter. • b represents the shortest diameter.
The antitumor efficacy of each group was evaluated using TGI or T/C. TGI (%) reflects the rate of tumor growth inhibition and is calculated as follows:(2) TGI%=1−Vend−V0exp/Vend−V0control×100% where: • Vend represents mean tumor volume at the end of treatment in the group. • V0 represents mean tumor volume at the start of treatment in the group. • exp represents the treated groups. • control represents the vehicle control group.
T/C (%) is calculated using the formula:(3) T/C%=TRTV/CRTV×100% where: • TRTV is the Relative Tumor Volume of the treatment group. • CRTV is the Relative Tumor Volume of the negative control group.
The Relative Tumor Volume (RTV) is calculated based on tumor measurement results using the formula:(4) RTV=Vt/V0 where: • V0 is the mean tumor volume at the time of grouping (day 0). • Vt is the mean tumor volume at a given measurement time.
TRTV and CRTV are based on data from the same day.
At the conclusion of the experiment, tumor weights were measured, and the T/C was calculated. Tweight and Cweight represent the tumor weights of the treatment group and the vehicle control group, respectively.

[5] = test system: fasting plasma glucose (∆FPG); test: PK/PD sigmoid Emax model of dorzagliatin plasma concentration vs ∆FPG; format: in vivo, BALB/c nude mice
Procedure: To further characterize the pharmacokinetics of the compounds, a two-compartment model with first-order absorption was developed using the Phoenix Model module in Phoenix software. The AIC method was applied to identify the most suitable pharmacokinetic model. This model facilitated the comprehensive evaluation of the pharmacokinetic behavior of the drugs under investigation.
To evaluate the effect of the test compounds on blood glucose levels, 10 μL of blood was collected from the tail veins of mice at baseline (time 0) and at predetermined time points (0.5, 1, 2, 4, 6, and 8 h) post-administration. Blood glucose levels were measured using a OneTouch Ultra glucometer. Changes in FPG levels over time were monitored and analyzed. ∆FPG was calculated using Equation (5):(5) ∆FPG=FPGcontrol−FPGexp/FPGcontrol×100% where: • FPGexp represents the FPG levels in the dorzagliatin group, dorzagliatin + WX390 group, or the dorzagliatin + BYL719 group. • FPGcontrol represents the FPG levels in the vehicle control group, WX390 group, or BYL719 group.
A preliminary PK/PD interaction model was developed using plasma concentrations and FPG levels in tumor-bearing mice. The relationship between plasma drug concentrations and FPG reduction was described using the Sigmoid Eₘₐₓ model (Equation (6)):(6) E=E0+Emax×Ce^γ/EC50γ+Ce^γ where: • E represents the mean percent blood glucose reduction. • Cₑ indicates the plasma concentration of the drug that elicits a pharmacodynamic response. • E0 is the baseline drug effect. • Eₘₐₓ represents the maximum potential drug effect. • EC50 is the plasma concentration at which 50% of the maximum drug effect is observed. • γ denotes the Hill coefficient, which reflects the steepness of the concentration-effect curve.

[6] = cited from earlier work; remark: listed apart in the source
[7] = test system: CYP1A2, 2A6, 2C9, 2C19, 2D6, 2E1, CYP3A4/5; set-up: method as in ref 32 = [32]; 32. Wang J. Zhao Z. Xu W. Hu X. Jin P. First Marketed Glucokinase Activator for Antidiabetic Therapy: Dorzagliatin Chin. Pharm. J. 2024 59 651 656; conditions: in vitro studies; cited from earlier work
[8] = set-up: method as in PMID 35551294; conditions: cited from earlier work
[9] = female, BALB/c nude, mouse, plasma, po, 25 mg/kg, PI3Ki measured in combination group with Dorz 10 mg/kg (given 30 min before), WX390 0.2 mg/kg or BYL719 25 mg/kg oral
[10] = female, BALB/c nude, mouse, plasma, po, 25 mg/kg, monotherapy group, plasma, oral gavage once daily for four weeks, Dorz 10 mg/kg, WX390 0.2 mg/kg, BYL719 25 mg/kg
[11] = E = mean percent blood glucose reduction (∆FPG)
[12] = Dorz 10 mg/kg measured in Dorz + BYL719 (25 mg/kg) group, oral
[13] = Dorz 10 mg/kg measured in Dorz + WX390 (0.2 mg/kg) group, oral
[14] = monotherapy group, plasma, oral gavage once daily for four weeks, Dorz 10 mg/kg, WX390 0.2 mg/kg, BYL719 25 mg/kg
[15] = co-administration with moderate CYP3A4 inhibitors such as verapamil, fluconazole, erythromycin

Cc1nc(NC(=O)N2CCC[C@H]2C(N)=O)sc1-c1ccnc(C(C)(C)C(F)(F)F)c1 [BYL719, alpelisib]
AUC0→24h ([1]; 300 mg/day): 33,224 ng·h/mL
Cmax ([1]; 300 mg/day): 2480 ng/mL
apparent volume of distribution [1]: 114 L
clearance rate [1]: 9.2 L/h
effect of food intake on pharmacokinetic profile [1]: does not significantly affect
plasma protein binding rate [1]: 89%
dose proportionality of exposure ([1]; fed conditions, doses 30 to 450 mg): increases proportionally
Tmax ([2]; PI3Ki measured in combination group with Dorz 10 mg/kg (given 30 min before), WX390 0.2 mg/kg or BYL719 25 mg/kg oral): 1.00 h
AUC(0-t) [2, 9]: 24800 ng·h/mL
half-life [2, 9]: 6.72 h
Cmax ([2]; female, BALB/c nude, mouse, plasma, po, 25 mg/kg, PI3Ki measured in combination group with Dorz 10 mg/kg (given 30 min before), WX390 0.2 mg/kg or BYL719 25 mg/kg oral, read-out: Cmax): 4210 ng/mL
AUC(0-t) [2, 10]: 29000 ng·h/mL
half-life [2, 10]: 5.33 h
Cmax ([2]; female, BALB/c nude, mouse, plasma, po, 25 mg/kg, monotherapy group, plasma, oral gavage once daily for four weeks, Dorz 10 mg/kg, WX390 0.2 mg/kg, BYL719 25 mg/kg, read-out: Cmax): 4790 ng/mL
Tmax ([2]; female, BALB/c nude, mouse, monotherapy group, plasma, oral gavage once daily for four weeks, Dorz 10 mg/kg, WX390 0.2 mg/kg, BYL719 25 mg/kg, read-out: Tmax): 1 h
CYP3A4 inhibitor status (CYP3A4): not a CYP3A4 inhibitor
P-gp inhibitor status (P-gp): P-gp inhibitor
metabolic route (in vitro studies) [3]: primarily metabolized through chemical degradation and enzymatic hydrolysis
rate of hyperglycemia, any grade [4]: 63.7%
rate of hyperglycemia, grades 3–4 [4]: 36.6%
treatment discontinuation rate due to hyperglycemia [4]: 6.3%
T/C (Relative Tumor Growth Rate) (OVCAR3 xenograft tumor): 52.85%
TGI (Tumor Growth Inhibition) (OVCAR3 xenograft tumor): 52.46%
Tumor Volume (Day 28) (OVCAR3 xenograft tumor): 836 mm^3 and 836 ± 71 mm^3

CC(C)C[C@@H](C(=O)Nc1ccn(C[C@@H](O)CO)n1)N1CC(Oc2ccccc2Cl)=CC1=O [Dorz, Dorzagliatin]
E0 (baseline drug effect) in PK/PD equation [5, 11]: 10
Emax (maximum potential drug effect) in PK/PD equation [5, 11]: 50%
EC50 (∆FPG as indicator) ([5]; dorzagliatin plasma concentration giving 50% of maximum effect, per treatment group): 0.74 µg/mL (≈ 1.6 µM)
Hill coefficient (γ) ([5]; ∆FPG, per treatment group): 0.80
AUC0→t [2, 12]: 3953.58 ng·h/mL
Cmax [2, 12]: 2013.33 ng/mL
Tmax [2, 12]: 1.00 h
t1/2 [2, 12]: 1.86 h
AUC0→t [2, 13]: 4657.23 ng·h/mL
Cmax [2, 13]: 1776.67 ng/mL
Tmax [2, 13]: 0.50 h
t1/2 [2, 13]: 2.93 h
AUC0→t [2, 14]: 3287.90 ng·h/mL
Cmax [2, 14]: 1331.00 ng/mL
Tmax [2, 14]: 0.50 h
t1/2 [2, 14]: 2.15 h
time to steady-state plasma pharmacokinetics ([6]; T2DM patients, twice-daily oral administration): ≤ 4 days
AUCtau ([6]; after oral administration): 5570 ng·h/mL
Cmax ([6]; after oral administration): 1090 ng/mL
median Tmax ([6]; after oral administration): 1.31 h
Metabolism [6]: primarily occurs in the liver via cytochrome P450 enzyme 3A4 (CYP3A4)
fold increase in AUC0→t of dorzagliatin [6, 15]: 2.4 fold
fold increase in Cmax of dorzagliatin [6, 15]: 1.2 fold
mean apparent volume of distribution ([6]; single 50 mg oral dose, healthy subjects): 115 L
P-gp substrate status (P-gp): substrate of P-gp
inhibition of CYP1A2, 2A6, 2C9, 2C19, 2D6, 2E1, CYP3A4/5 [7]: does not inhibit
patients with clinically significant hypoglycemic events (blood glucose < 54 mg/dL) ([8]; 24-week double-blind treatment period, 1 of 310 patients): 0.3%
exposure-adjusted event rate for clinically significant hypoglycemia ([8]; 52-week observation period): 0.006 events per patient-year
T/C (Relative Tumor Growth Rate) (OVCAR3 xenograft tumor): 90.81%
TGI (Tumor Growth Inhibition) (OVCAR3 xenograft tumor): 10.19%
Tumor Volume (Day 28) (OVCAR3 xenograft tumor): 1437 ± 172 mm^3

From publication PMC12196043, “In Vivo PK-PD and Drug–Drug Interaction Study of Dorzagliatin for the Management of PI3Kα Inhibitor-Induced Hyperglycemia” (Pharmaceuticals, 2025)
